Experiment: Test of dissolving sesamin-class compounds into fats and oils (solubility)
Assay type: physicochemical
Experimental: Solubility of sesamin-class compounds to various fats and oils was determined. Sesamin, episesamin, and a mixture of sesamin and episesamin, sesamin:episesamin=51.1:48.2 (Takemoto Oil and Fat Co., Ltd.), were used as the sesamin-class compounds. The sesamin and the episesamin were prepared by isolating them from the mixture and purifying them. The respective sesamin-class compounds were dissolved into five different kinds of fats and oils, 100 g each, shown in Table 1 to determine a limit amount (solubility) of the respective sesamin-class compounds that can be dissolved completely. It is understood from Table 1 that the sesamin, the episesamin, and the mixture of the sesamin and the episesamin have different solubilities, and that the solubility varies in a manner that depends on the types of the fats and oils.

Compound	Solubility in fats and oils: DG [%]	Solubility in fats and oils: MCT-1 [%]	Solubility in fats and oils: MCT-2 [%]	Solubility in fats and oils: olive oil [%]	Solubility in fats and oils: wheatgerm oil [%]
c1cc2c(cc1[C@H]1OC[C@H]3[C@@H]1CO[C@@H]3c1ccc3c(c1)OCO3)OCO2 [EPISESAMIN, episesamin]	1.0	2.5	2.5	0.5	0.75
c1cc2c(cc1[C@H]1OC[C@H]3[C@@H]1CO[C@@H]3c1ccc3c(c1)OCO3)OCO2 [SESAMIN, sesamin]	1.25	4.0	2.0	0.75	0.75
